Data as given in US6355799B1, “Substituted benzene compounds, process for their preparation, and herbicidal and defoliant compositions containing them” (ISK Americas Incorporated, priority 1997, dated 2002).

Assays:
Type in all cases: in vivo
[1] = tested on: green foxtail (Setaria viridis, SETVI); test: Pre-emerge test, greenhouse herbicide activity screening; conditions: pre-emerge, rated 14 days after application, 0 = no damage, 100 = complete death
Outline: (§1)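 Sandy loam pots; pre-emerge: sown 1 d pre-spray, surface-watered after, then bottom-watered. Post-emerge: sown 8–21 d before, 2–3 leaf stage, + 0.25% v/v NIS, bottom-watered. Acetone, 187 l/ha track spray, 15–1000 g ai/ha. 0–100 injury score, day 14.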

[2] = tested on: common ragweed (Ambrosia artemisizfolia L., AMBEL); test: as above; conditions: pre-emerge, rated 14 days after application, 0 = no damage, 100 = complete death
Outline: as §1

[3] = tested on: sicklepod (Cassia obtusifolia, CASOB); test: as above; conditions: pre-emerge, rated 14 days after application, 0 = no damage, 100 = complete death
Outline: as §1

[4] = tested on: large crabgrass (Digitaria sanguinalis, DIGSA); test: as above; conditions: pre-emerge, rated 14 days after application, 0 = no damage, 100 = complete death
Outline: as §1

[5] = tested on: johnsongrass (Sorghum halepense, SORHA); test: as above; conditions: pre-emerge, rated 14 days after application, 0 = no damage, 100 = complete death
Outline: as §1

[6] = tested on: lambsquarters (Chenopodium album, CHEAL); test: as above; conditions: pre-emerge, rated 14 days after application, 0 = no damage, 100 = complete death
Outline: as §1

[7] = tested on: barnyardgrass (Echinochloa crus-galli, ECHCG); test: as above; conditions: pre-emerge, rated 14 days after application, 0 = no damage, 100 = complete death
Outline: as §1

[8] = tested on: ivyleaf morningglory (Ipomoea hederacea, IPOHE); test: as above; conditions: pre-emerge, rated 14 days after application, 0 = no damage, 100 = complete death
Outline: as §1

[9] = tested on: velvetleaf (Abutilon theophrasti, ABUTH); test: as above; conditions: pre-emerge, rated 14 days after application, 0 = no damage, 100 = complete death
Outline: as §1

[10] = tested on: green foxtail (Setaria viridis, SETVI); test: Post-emerge test, greenhouse herbicide activity screening; conditions: phytotoxicity rating 0-100 (0 no damage, 100 complete death), 14 days after application
Outline: (§2)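 Plants grown in 10 cm pots of sandy loam mix received acetone-dissolved compounds through a moving flat-fan nozzle. Doses ranged from 15 to 1000 g ai/ha. Pre-emerge pots were seeded one day earlier, post-emerge pots 8–21 days earlier. Fourteen days on, each pot was graded 0–100 for damage.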

[11] = tested on: common ragweed (Ambrosia artemisizfolia L., AMBEL); test: as above; conditions: phytotoxicity rating 0-100 (0 no damage, 100 complete death), 14 days after application
Outline: as §2

[12] = tested on: sicklepod (Cassia obtusifolia, CASOB); test: as above; conditions: phytotoxicity rating 0-100 (0 no damage, 100 complete death), 14 days after application
Outline: as §2

[13] = tested on: large crabgrass (Digitaria sanguinalis, DIGSA); test: as above; conditions: phytotoxicity rating 0-100 (0 no damage, 100 complete death), 14 days after application
Outline: as §2

[14] = tested on: johnsongrass (Sorghum halepense, SORHA); test: as above; conditions: phytotoxicity rating 0-100 (0 no damage, 100 complete death), 14 days after application
Outline: as §2

[15] = tested on: lambsquarters (Chenopodium album, CHEAL); test: as above; conditions: phytotoxicity rating 0-100 (0 no damage, 100 complete death), 14 days after application
Outline: as §2

[16] = tested on: barnyardgrass (Echinochloa crus-galli, ECHCG); test: as above; conditions: phytotoxicity rating 0-100 (0 no damage, 100 complete death), 14 days after application
Outline: as §2

[17] = tested on: ivyleaf morningglory (Ipomoea hederacea, IPOHE); test: as above; conditions: phytotoxicity rating 0-100 (0 no damage, 100 complete death), 14 days after application
Outline: as §2

[18] = tested on: velvetleaf (Abutilon theophrasti, ABUTH); test: as above; conditions: phytotoxicity rating 0-100 (0 no damage, 100 complete death), 14 days after application
Outline: as §2

[19] = tested on: redroot pigweed (Amaranthus retroflexus, AMARE); test: as above; conditions: phytotoxicity rating 0-100 (0 no damage, 100 complete death), 14 days after application
Outline: as §2

[20] = tested on: upland rice (Oryza sp., var. Tebonnet, RICE); test: Post-emerge test, crop safety; conditions: phytotoxicity rating 0-100 (0 no damage, 100 complete death), 14 days after application
Outline: as §1

[21] = tested on: field corn (Zea mays L., var. Dekalb 535, CORN); test: Post-emerge test, crop safety; conditions: phytotoxicity rating 0-100 (0 no damage, 100 complete death), 14 days after application
Outline: as §1

[22] = tested on: redroot pigweed (Amaranthus retroflexus, AMARE); test: Pre-emerge test, greenhouse herbicide activity screening; conditions: pre-emerge, rated 14 days after application, 0 = no damage, 100 = complete death
Outline: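 Compounds in acetone were track-sprayed at 187 l/ha, 15–1000 g ai/ha, onto sandy loam pots. Pre-emerge seeds were sown one day before spraying, with surface watering afterwards. Post-emerge plants were at the 2–3 leaf stage and sprayed with 0.25% v/v non-ionic surfactant. Injury was rated 0–100 at 14 days.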

[23] = tested on: upland rice (Oryza sp., var. Tebonnet, RICE); test: Pre-emerge test, crop safety; conditions: pre-emerge, rated 14 days after application, 0 = no damage, 100 = complete death
Outline: (§3)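 Fourteen days after spraying, crop and weed injury was graded visually from 0, no effect, to 100, every plant dead. Test substances were dissolved in acetone and applied at 15–1000 g ai/ha with a flat-fan nozzle. Application was either pre-emergence, one day after sowing, or post-emergence at the 2–3 leaf stage.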

[24] = tested on: field corn (Zea mays L., var. Dekalb 535, CORN); test: Pre-emerge test, crop safety; conditions: pre-emerge, rated 14 days after application, 0 = no damage, 100 = complete death
Outline: as §3

Cn1c(C(F)(F)F)cc(=O)n(-c2c(F)cc(Cl)c(OC3CCCC3)c2N)c1=O [Compound 1-21]
Pre-emerge Herbicidal Activity SETVI (phytotoxicity rating, scale 0-100) ([1]; 63 g ai/ha): 95 | Pre-emerge Herbicidal Activity SETVI (phytotoxicity rating, scale 0-100) ([1]; 250 g ai/ha): 100 | Pre-emerge Herbicidal Activity AMBEL (phytotoxicity rating, scale 0-100) ([2]; 63 g ai/ha): 0 | Pre-emerge Herbicidal Activity AMBEL (phytotoxicity rating, scale 0-100) ([2]; 250 g ai/ha): 100 | Pre-emerge Herbicidal Activity CASOB (phytotoxicity rating, scale 0-100) ([3]; 63 g ai/ha): 0 | Pre-emerge Herbicidal Activity CASOB (phytotoxicity rating, scale 0-100) ([3]; 250 g ai/ha): 0 | Pre-emerge Herbicidal Activity DIGSA (phytotoxicity rating, scale 0-100) ([4]; 63 g ai/ha): 70 | Pre-emerge Herbicidal Activity DIGSA (phytotoxicity rating, scale 0-100) ([4]; 250 g ai/ha): 100 | Pre-emerge Herbicidal Activity SORHA (phytotoxicity rating, scale 0-100) ([5]; 63 g ai/ha): 0 | Pre-emerge Herbicidal Activity SORHA (phytotoxicity rating, scale 0-100) ([5]; 250 g ai/ha): 90 | Pre-emerge Herbicidal Activity CHEAL (phytotoxicity rating, scale 0-100) ([6]; 63 g ai/ha): 100 | Pre-emerge Herbicidal Activity CHEAL (phytotoxicity rating, scale 0-100) ([6]; 250 g ai/ha): 100 | Pre-emerge Herbicidal Activity ECHCG (phytotoxicity rating, scale 0-100) ([7]; 63 g ai/ha): 0 | Pre-emerge Herbicidal Activity ECHCG (phytotoxicity rating, scale 0-100) ([7]; 250 g ai/ha): 95 | Pre-emerge Herbicidal Activity IPOHE (phytotoxicity rating, scale 0-100) ([8]; 63 g ai/ha): 0 | Pre-emerge Herbicidal Activity IPOHE (phytotoxicity rating, scale 0-100) ([8]; 250 g ai/ha): 40 | Pre-emerge Herbicidal Activity ABUTH (phytotoxicity rating, scale 0-100) ([9]; 63 g ai/ha): 70 | Pre-emerge Herbicidal Activity ABUTH (phytotoxicity rating, scale 0-100) ([9]; 250 g ai/ha): 100 | Post-emerge Herbicidal Activity SETVI ([10]; 63 g ai/ha): 10 | Post-emerge Herbicidal Activity SETVI ([10]; 250 g ai/ha): 30 | Post-emerge Herbicidal Activity AMBEL ([11]; 63 g ai/ha): 10 | Post-emerge Herbicidal Activity AMBEL ([11]; 250 g ai/ha): 30 | Post-emerge Herbicidal Activity CASOB ([12]; 63 g ai/ha): 10 | Post-emerge Herbicidal Activity CASOB ([12]; 250 g ai/ha): 30 | Post-emerge Herbicidal Activity DIGSA ([13]; 63 g ai/ha): 0 | Post-emerge Herbicidal Activity DIGSA ([13]; 250 g ai/ha): 0 | Post-emerge Herbicidal Activity SORHA ([14]; 63 g ai/ha): 0 | Post-emerge Herbicidal Activity SORHA ([14]; 250 g ai/ha): 0 | Post-emerge Herbicidal Activity CHEAL ([15]; 63 g ai/ha): 75 | Post-emerge Herbicidal Activity CHEAL ([15]; 250 g ai/ha): 95 | Post-emerge Herbicidal Activity ECHCG ([16]; 63 g ai/ha): 0 | Post-emerge Herbicidal Activity ECHCG ([16]; 250 g ai/ha): 0 | Post-emerge Herbicidal Activity IPOHE ([17]; 63 g ai/ha): 70 | Post-emerge Herbicidal Activity IPOHE ([17]; 250 g ai/ha): 90 | Post-emerge Herbicidal Activity ABUTH ([18]; 63 g ai/ha): 85 | Post-emerge Herbicidal Activity ABUTH ([18]; 250 g ai/ha): 100 | Post-emerge Herbicidal Activity AMARE ([19]; 63 g ai/ha): 95 | Post-emerge Herbicidal Activity AMARE ([19]; 250 g ai/ha): 100 | Post-emerge Herbicidal Activity RICE (crop damage) ([20]; 63 g ai/ha): 10 | Post-emerge Herbicidal Activity RICE (crop damage) ([20]; 250 g ai/ha): 10 | Post-emerge Herbicidal Activity CORN (crop damage) ([21]; 63 g ai/ha): 5 | Post-emerge Herbicidal Activity CORN (crop damage) ([21]; 250 g ai/ha): 5 | Pre-emerge Herbicidal Activity AMARE (phytotoxicity rating, scale 0-100) ([22]; 63 g ai/ha): 98 | Pre-emerge Herbicidal Activity AMARE (phytotoxicity rating, scale 0-100) ([22]; 250 g ai/ha): 100 | Pre-emerge crop damage RICE (phytotoxicity rating, scale 0-100) ([23]; 63 g ai/ha): 0 | Pre-emerge crop damage RICE (phytotoxicity rating, scale 0-100) ([23]; 250 g ai/ha): 10 | Pre-emerge crop damage CORN (phytotoxicity rating, scale 0-100) ([24]; 63 g ai/ha): 0 | Pre-emerge crop damage CORN (phytotoxicity rating, scale 0-100) ([24]; 250 g ai/ha): 0
